Measurements reported in patent US6528048B1, “Ophthalmic solutions” (Rohto Pharmaceutical Co., Ltd., priority 1998, dated 2003).

Tested on: rabbit corneal epithelial cells
Experiment: Cytotoxicity, Neutral red assay
Type: cell-based
Details: cultured 2 days
Procedure: Cytotoxicity of the compound (3) was evaluated by conducting a test according to the method of Neutral red assay using rabbit corneal epithelial cells of a CornePack kit (Kurabo Industries, Ltd.). The frozen cells of the primary culture were inoculated at a density of 4000 cells/cm^2 in a 25-cm^2 flask. The cells were cultured at 37° C. under an atmosphere of 5% CO2 for 5 days (the secondary culture) and then 100 μl aliquots of them were inoculated in the wells of a 96-well multi-plate at a cell density of 2500 cells/well. The culture was continued at 37° C. under an atmosphere of 5% CO2 for 3 days (tertiary culture). […] A 100 μl aliquot of the solutions was added into each well containing the corneal epithelial cells of the tertiary culture. The cells were further cultured at 37° C. under an atmosphere of 5% CO2 for 2 days. A 100 μl aliquot of a Neutral red solution (about 150 μg/ml) was added into each well. The cells were further cultured at 37° C. under an atmosphere of 5% CO2 for 2 hours to incorporate Neutral red into lysosomes of the viable cells. Then the culture supernatants were discarded by inverting the plate. A 200 μl aliquot of a solution containing formalin and calcium chloride were added into each well and the cells were fixed for 1 minute to improve the cell adhesion to the plate. The remaining Neutral red was washed out from the wells. Subsequently, the supernatants in the wells were discarded and 100 μl aliquots of a mixture consisting of acetic acid and ethanol were added to the wells. The plate was allowed to stand for 20 minutes to extract Neutral red incorporated in the viable cells. The amount of Neutral red was determined by measuring the absorbance at a wavelength of 540 nm. The averaged absorbance value of the blank (the measured value, which was obtained by the same assay procedure but in the absence of Neutral red, for the untreated control cells cultured under the same condition) was subtracted from the measured value of the sample to give the correction absorbance value. The viable cell rate was calculated from the ratio of the sample absorbance to the absorbance for the untreated cells according to the following equation. Viable cell rate in each plate=(Averaged absorbance of each test solution/Averaged absorbance of the untreated control)×100

Compound	Viable cell rate (test solution 1.0 μg/ml) [%]	Viable cell rate (test solution 2.5 μg/ml) [%]	Viable cell rate (test solution 5.0 μg/ml) [%]	Viable cell rate (test solution 10.0 μg/ml) [%]	Viable cell rate (test solution 0.5 μg/ml) [%]
N=C(NCCCCCCNC(=N)NC(=N)Nc1ccc(Cl)cc1)NC(=N)Nc1ccc(Cl)cc1.O=C(O)[C@H](O)[C@@H](O)[C@H](O)[C@H](O)CO.O=C(O)[C@H](O)[C@@H](O)[C@H](O)[C@H](O)CO [Chlorhexidine gluconate]	103	74	49	3	
Benzalkonium chloride	52	49	2		60
